Test results from US11192849B2, “Compounds, compositions, and methods for modulating ferroptosis and treating excitotoxic disorders” (THE TRUSTEES OF COLUMBIA UNIVERSITY IN THE CITY OF NEW YORK, priority 2013, dated 2021).
“Also recorded” adds a separate entry of the source. Like-named read-outs stand apart in the source and are kept apart here.

Experiments:
[1] = test system: HT-1080 cells; assay: Inhibition of erastin (10 μM)-induced death in HT-1080 cells (Alamar Blue); assay type: cell-based, human; conditions: for EC50: Homo sapiens
Procedure, shortened: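 HT-1080 cells (1,000/well) were treated next day with 10 μM erastin plus a compound dilution series for 24 h. Alamar Blue (10% final) was then added for 6 h and fluorescence read at ex/em 530/590.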

[2] = test system: primary pre-oligodendrocytes; assay: PVL model: cystine deprivation of developing oligodendrocytes; assay type: cell-based, rat; conditions: 100 nM, 24 hrs, Alamar Blue
Procedure: Primary pre-oligodendrocytes cultures were prepared from the forebrains of P2 Sprague Dawley (Charles River Laboratory) rat pups using a differential detachment method. Forebrains free of meninges were dissociated with Hanks' Balanced Salt Solution containing 0.01% trypsin and 10 μg/ml DNase, and triturated with DMEM containing 10% heat-inactivated fetal bovine serum and 100 U/ml penicillin and 100 μg/ml streptomycin. Dissociated cells were plated onto poly-D-lysine-coated 75 cm^2 flasks and fed cells every other day for 10-17 days. On day 10 or 17, following 1 hour pre-shake at 200 rpm 37° C. to remove microglia, the flasks were shaken overnight to separate pre-oligodendrocytes from astrocyte layer. The cell suspension was passed through a 20 μm filter and plated onto uncoated (bacteriological) petri dishes for 1 hour in incubator to remove residual microglia/astrocytes. Cell suspension was plated onto poly-D,L-ornithine-coated plates with DMEM, 1×ITS (Life Technologies), 2 mM L-glutamine, 1 mM sodium pyruvate, 0.5% FBS and 0.05% gentamicin (Sigma), 10 ng/ml PDGF and 10 ng/ml FGF (Peprotech), with full medium change the next day and half medium change every other day. […] Fluorescence was assayed in each well using FluoroCount Plate Reader (Packard), with Packard Plate Reader Version 3.0, and 530 nm excitation, and 590 nm emission filters. […]

[3] = test system: mouse kidney proximal tubules; assay: Hydroxyquinoline + iron induced cell death in isolated mouse kidney proximal tubules (LDH release); assay type: cell-based; conditions: 10 μM hydroxyquinoline and ferrous ammonium sulfate, 60 min
Procedure: Tubule preparation: 8-12 week old C57/BL6 female mice were euthanized with isoflurane. […] The cortices were then dissected and minced on an ice cold tile, then resuspended in additional Solution A for 8-10 min. of digestion at 37° C. followed by enrichment of proximal tubules using centrifugation on self-forming Percoll gradients as previously described for rabbit tubules.
Experimental procedures for isolated tubules: Tubules were suspended at 1.5-2.0 mg tubule protein/ml in a 95% air/5% CO2-gassed medium containing (in mM) 110 NaCl, 2.6 KCl, 25 NaHCO3, 2.4 KH2PO4, 1.25 CaCl2, 1.2 MgCl2, 1.2 MgSO4, 5 glucose, 4 sodium lactate, 0.3 alanine, 5 sodium butyrate, 2 glycine, and 1.0 mg/ml bovine gelatin (75 bloom) (Solution B). After precincubation for 15 min. at 37° C., then were then resuspended in fresh Solution B containing 2 mM heptanoic acid instead of sodium butyrate along with experimental compounds.
In addition, the efficacy of Fer-1, SRS11-92, and selected analogs was tested in a model of iron-induced cell death in freshly isolated mouse kidney proximal tubules that simulates major elements of rhabdomyolysis-induced acute kidney injury (FIG. 15C). Cell death in this model is known to involve oxidative lipid damage (Sogabe, et al., 1996, Park, et al., 2011); it was therefore believed that Fer-1 might be protective. 10 μM each of hydroxyquinoline and ferrous ammonium sulfate (HQ+Fe) were used to induce cell death, which was quantified by monitoring LDH release after 60 min. […] By implication, cell death in these models may involve, at least in part, the induction of lipid peroxidation and perhaps ferroptosis.

Structure (SMILES)	EC50 ([1]; HT-1080, SI Table 2, analogs with various hydrophobic moieties) [nM]	EC50 ([1]; HT-1080, SI Table 5) [nM]	EC50 ([1]; HT-1080, SI Table 8) [nM]	EC50 ([1]; HT-1080, Table 1 (Example 10), erastin (10 μM)-treated HT-1080 cells) [nM]	prevention of erastin-induced death ([1]; erastin-treated HT-1080 cells)	protection of oligodendrocytes from cystine deprivation [2]	HQ+Fe induced lethality (LDH release) [3]	fold more potent than the parent Fer-1 ([1]; HT-1080, erastin (10 μM)) [fold]	potency compared with Fer-1 ([1]; HT-1080, erastin (10 μM))	EC50 ([1]; HT-1080, Example 15, erastin (10 μM), HT-1080, read-out: EC50) [nM]	EC50 ([1]; HT-1080, SI Table 6, read-out: EC50) [nM]	EC50 ([1]; HT-1080, SI Table 7, read-out: EC50) [nM]
CCOC(=O)c1ccc(NC2CCCCC2)c(N)c1 [SRS8-28 (Fer-1), ethyl 3-amino-4-(cyclohexylamino)benzoate]	95	88	88	95	suppressed erastin-induced death	fully protected OLs from cystine deprivation	prevented lethality; also recorded: protective	–	–	–	–	–
CCOC(=O)c1ccc(NC2CCCCC2)c(NCc2ccccc2)c1 [SRS11-92, ethyl 3-(benzylamino)-4-(cyclohexylamino)benzoate]	–	–	–	–	–	fully protected OLs from cystine deprivation	prevented lethality	15	more potent than Fer-1	6	6	6
